{"source": "patent US20110171184A1", "about": "“Method for Introducing a Pna Molecule Conjugated to a Positively Charged Peptide into the Cytosol and/or the Nucleus by Photochemical Internalisation (Pci)” (PCI Biotech AS, priority 2004, published 2011)", "origin": "cited, not measured here", "system": "cells", "conditions": "10 μM, after 24 hours, no PCI", "note": "Ends that are not written are not given here.", "data": [{"substance": "scrambled NLS sequence (SEQ ID NO:4 KKVKPKR) conjugated to PNA: PNA conjugated to scrambled NLS sequence KKVKPKR (Cutrona et al.) (also: conjugated to PNA)", "values": [{"measurement": "presence of PNA in the nucleus", "result": "only minimal amounts of PNA in the nucleus"}]}]}
